Data from patent US8158810B2 (Gilead Sciences, Inc., priority 2006, dated 2012).

What was measured:
hMAO-A = target: T1, hMAO-A (Homo sapiens, UniProt P21397); test: MAO-A inhibition assay; format: biochemical; conditions: No = no inhibition; for hMAO-A inhibition up to 10 μM: printed in the IC50 hMAO-A column
T1 construct: purchased Sigma M7316
T1 sequence (P21397 1-527): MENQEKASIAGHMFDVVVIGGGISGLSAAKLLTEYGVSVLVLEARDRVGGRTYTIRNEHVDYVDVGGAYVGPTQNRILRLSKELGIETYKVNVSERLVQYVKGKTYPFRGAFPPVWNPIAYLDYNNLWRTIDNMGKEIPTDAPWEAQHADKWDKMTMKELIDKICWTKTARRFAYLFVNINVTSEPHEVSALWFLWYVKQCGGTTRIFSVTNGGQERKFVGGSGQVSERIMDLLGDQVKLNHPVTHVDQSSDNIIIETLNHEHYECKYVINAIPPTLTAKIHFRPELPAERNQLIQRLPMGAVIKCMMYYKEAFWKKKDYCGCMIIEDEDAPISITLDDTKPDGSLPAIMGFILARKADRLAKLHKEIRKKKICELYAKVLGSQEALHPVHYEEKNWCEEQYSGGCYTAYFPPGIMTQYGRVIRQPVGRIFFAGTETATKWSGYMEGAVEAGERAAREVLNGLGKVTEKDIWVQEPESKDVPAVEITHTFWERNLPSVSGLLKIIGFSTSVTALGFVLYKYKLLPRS
Description: (§1) MAO-A (Sigma M7316) and MAO-B (Sigma M7441) inhibition assays were conducted in 96-well micro-plates according to the method described by Zhou et al. [Analytical Biochemistry 253, 169-174, 1997]. […] Reactions were initiated by the addition of a pre-mixed solution of tyramine, horseradish peroxidase and Amplex Red, and were allowed to proceed at 37° C. for 30 min. Enzyme activities were determined by measuring absorbance at 570 nm (SpectralMax Plate reader), absorbance of oxidized Amplex Red generated by this horseradish peroxidase-coupled reaction. Nonspecifically formed products were determined in the presence of 2 and 10 µM clorgyline and deprenyl for MAO-A and MAO-B, respectively. IC50 values were determined by fitting concentration-inhibition data to sigmoidal dose-response curves with two-floating parameters: IC50 and Hill coefficient.

hMAO-B = target: T2, hMAO-B (Homo sapiens, UniProt P27338); test: MAO-B inhibition assay; format: biochemical; conditions: No = no inhibition; for hMAO-B inhibition at 10 μM: printed in the IC50 hMAO-B column
T2 construct: purchased Sigma M7441
T2 sequence (P27338 1-520): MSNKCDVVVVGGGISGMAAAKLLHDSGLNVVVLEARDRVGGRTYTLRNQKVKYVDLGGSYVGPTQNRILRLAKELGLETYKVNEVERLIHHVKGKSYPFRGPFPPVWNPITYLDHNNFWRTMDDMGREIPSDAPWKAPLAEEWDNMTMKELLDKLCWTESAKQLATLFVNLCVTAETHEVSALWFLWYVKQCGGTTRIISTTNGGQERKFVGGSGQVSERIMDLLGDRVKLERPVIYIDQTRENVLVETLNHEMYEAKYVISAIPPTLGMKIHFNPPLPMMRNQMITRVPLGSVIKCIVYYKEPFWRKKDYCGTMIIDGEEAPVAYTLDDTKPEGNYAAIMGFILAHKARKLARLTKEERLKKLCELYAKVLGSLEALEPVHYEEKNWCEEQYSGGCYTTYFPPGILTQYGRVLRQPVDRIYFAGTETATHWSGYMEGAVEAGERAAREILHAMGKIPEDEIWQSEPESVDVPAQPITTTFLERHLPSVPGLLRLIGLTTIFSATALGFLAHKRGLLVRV
Description: as §1

Compound	hMAO-A inhibition up to 10 μM (hMAO-A)	hMAO-B inhibition at 10 μM (hMAO-B)	further results
O=c1c(-c2ccc(O)cc2)coc2cc(OCc3coc(-c4cc(F)cc(C(F)(F)F)c4)n3)ccc12 [PT-13, 7-({2-[5-fluoro-3-(trifluoromethyl)phenyl](1,3-oxazol-4-yl)}methoxy)-3-(4-hydroxyphenyl)chromen-4-one]	No	No	–
CCOC(=O)c1cnn(CCOc2ccc3c(=O)c(-c4ccc(O)cc4)coc3c2)c1 [PT-122, ethyl 1-{2-[3-(4-hydroxyphenyl)-4-oxochromen-7-yloxy]ethyl}pyrazole-4-carboxylate]	No	No	–
N#Cc1cccc(-c2nc(COc3ccc4c(=O)c(-c5ccc(O)cc5)coc4c3)no2)c1 [PT-40, 3-(3-{[3-(4-hydroxyphenyl)-4-oxochromen-7-yloxy]methyl}-1,2,4-oxadiazol-5-yl)benzenecarbonitrile]	No	–	hMAO-B inhibition up to 10 μM (hMAO-B): No
NC(=O)c1ccc(COc2ccc3c(=O)c(-c4ccc(O)cc4)coc3c2)cc1 [PT-37, 4-{[3-(4-hydroxyphenyl)-4-oxochromen-7-yloxy]methyl}benzamide]	–	–	hMAO-A inhibition up to 30 μM (hMAO-A): No; hMAO-B inhibition up to 30 μM (hMAO-B): No
O=c1c(-c2ccc(O)cc2)coc2cc(OCc3noc(-c4cccc(F)c4)n3)ccc12 [PT-42, 7-{[5-(3-fluorophenyl)(1,2,4-oxadiazol-3-yl)]methoxy}-3-(4-hydroxyphenyl)chromen-4-one]	No	–	hMAO-B inhibition up to 10 μM (hMAO-B): No
O=c1c(-c2ccc(O)cc2)coc2cc(OCc3noc(-c4cc(C(F)(F)F)cc(C(F)(F)F)c4)n3)ccc12 [PT-39, 7-({5-[3,5-bis(trifluoromethyl)phenyl](1,2,4-oxadiazol-3-yl)}methoxy)-3-(4-hydroxyphenyl)chromen-4-one]	No	–	hMAO-B inhibition up to 10 μM (hMAO-B): No
O=c1c(-c2ccc(O)cc2)coc2cc(OCc3coc(-c4ccc(F)cc4)n3)ccc12 [PT-16, 7-{[2-(4-fluorophenyl)(1,3-oxazol-4-yl)]methoxy}-3-(4-hydroxyphenyl)chromen-4-one]	No	No	–
O=c1c(-c2ccc(O)cc2)coc2cc(OCc3noc(-c4cc(F)cc(C(F)(F)F)c4)n3)ccc12 [PT-29, 7-({5-[3-fluoro-5-(trifluoromethyl)phenyl](1,2,4-oxadiazol-3-yl)}methoxy)-3-(4-hydroxyphenyl)chromen-4-one]	–	–	hMAO-A inhibition up to 30 μM (hMAO-A): No; hMAO-B inhibition up to 30 μM (hMAO-B): No
O=c1c(-c2ccc(O)cc2)coc2cc(OCc3noc(-c4ccccc4)n3)ccc12 [PT-24, 3-(4-hydroxyphenyl)-7-[(5-phenyl(1,2,4-oxadiazol-3-yl))methoxy]chromen-4-one]	–	–	hMAO-A inhibition up to 40 μM (hMAO-A; up to 40 μM): No; hMAO-B inhibition up to 40 μM (hMAO-B; up to 40 μM): No
O=c1c(-c2ccc(O)cc2)coc2cc(OCc3cc(-c4cc(C(F)(F)F)cc(C(F)(F)F)c4)on3)ccc12 [PT-62, 7-({5-[3,5-bis(trifluoromethyl)phenyl]isoxazol-3-yl}methoxy)-3-(4-hydroxyphenyl)chromen-4-one]	No	no	–
O=c1c(-c2ccc(O)cc2)coc2cc(OCc3nc(-c4ccccc4)no3)ccc12 [PT-43, 3-(4-hydroxyphenyl)-7-[(3-phenyl(1,2,4-oxadiazol-5-yl))methoxy]chromen-4-one]	–	–	hMAO-A inhibition up to 30 μM (hMAO-A): No; hMAO-B inhibition up to 30 μM (hMAO-B): No
O=c1c(-c2ccc(O)cc2)coc2cc(OCc3nc(-c4cccc(C(F)(F)F)c4)no3)ccc12 [PT-115, 3-(4-hydroxyphenyl)-7-({3-[3-(trifluoromethyl)phenyl](1,2,4-oxadiazol-5-yl)}methoxy)chromen-4-one]	No	No	–
O=c1c(-c2ccc(O)cc2)coc2cc(OCc3nnc(-c4cccnc4)o3)ccc12 [PT-110, 3-(4-hydroxyphenyl)-7-[(5-(3-pyridyl)(1,3,4-oxadiazol-2-yl))methoxy]chromen-4-one]	No	No	–
O=c1c(-c2ccc(O)cc2)coc2cc(OCc3coc(-c4cccc(C(F)(F)F)c4)n3)ccc12 [PT-12, 3-(4-hydroxyphenyl)-7-({2-[3-(trifluoromethyl)phenyl](1,3-oxazol-4-yl)}methoxy)chromen-4-one]	No	No	–
O=C(COc1ccc2c(=O)c(-c3ccc(O)cc3)coc2c1)c1ccccc1C(F)(F)F [PT-85, 3(4-hydroxyphenyl)-7-{2-oxo-2-[2-(trifluoromethyl)phenyl]ethoxy}chromen-4-one]	No	No	–
O=c1c(-c2ccc(O)cc2)coc2cc(OCc3coc(-c4cc(F)cc(F)c4)n3)ccc12 [PT-14, 7-{[2-(3,5-difluorophenyl)(1,3-oxazol-4-yl)]methoxy}-3-(4-hydroxyphenyl)chromen-4-one]	No	No	–
O=c1c(-c2ccc(O)cc2)coc2cc(OCc3noc(-c4cc(C(F)(F)F)ccc4C(F)(F)F)n3)ccc12 [PT-31, 7-({5-[2,5-bis(trifluoromethyl)phenyl](1,2,4-oxadiazol-3-yl)}methoxy)-3-(4-hydroxyphenyl)chromen-4-one]	No	–	hMAO-B inhibition up to 10 μM (hMAO-B): No
NC(=O)c1ccc(-c2coc3cc(OCc4noc(-c5cc(F)cc(C(F)(F)F)c5)n4)ccc3c2=O)cc1 [PT-72, 4-[7-({5-[3-fluoro-5-(trifluoromethyl)phenyl](1,2,4-oxadiazol-3-yl)}methoxy)-4-oxochromen-3-yl]benzamide]	No	No	–
